Assay results published in ChEMBL document CHEMBL5465560, “Selectivity Literature for EUbOPEN Chemogenomic Library” (2024).

Key:
[1] = target: Ribosomal protein S6 kinase alpha-4 (Homo sapiens) (UniProt O75676); details: at 10 µM
[2] = target: G protein-coupled receptor kinase 6 (Homo sapiens) (UniProt P43250); experiment: Selectivity interaction (Upstate Kinase Profiler service (Millipore)) EUB0000056c GRK6; details: at 1 µM
[3] = target: Prostaglandin G/H synthase 1 (Homo sapiens) (UniProt P23219); experiment: Selectivity interaction (Safety Panel 44tm (Eurofins)) EUB0000162b PTGS1; details: at 10 µM
[4] = target: T1, Tyrosine-protein kinase TXK (Homo sapiens) (UniProt P42681); experiment: Selectivity interaction (KinomeScan (DiscoverX)) EUB0000655a TXK; details: at 10 µM
T1 sequence (whole entry): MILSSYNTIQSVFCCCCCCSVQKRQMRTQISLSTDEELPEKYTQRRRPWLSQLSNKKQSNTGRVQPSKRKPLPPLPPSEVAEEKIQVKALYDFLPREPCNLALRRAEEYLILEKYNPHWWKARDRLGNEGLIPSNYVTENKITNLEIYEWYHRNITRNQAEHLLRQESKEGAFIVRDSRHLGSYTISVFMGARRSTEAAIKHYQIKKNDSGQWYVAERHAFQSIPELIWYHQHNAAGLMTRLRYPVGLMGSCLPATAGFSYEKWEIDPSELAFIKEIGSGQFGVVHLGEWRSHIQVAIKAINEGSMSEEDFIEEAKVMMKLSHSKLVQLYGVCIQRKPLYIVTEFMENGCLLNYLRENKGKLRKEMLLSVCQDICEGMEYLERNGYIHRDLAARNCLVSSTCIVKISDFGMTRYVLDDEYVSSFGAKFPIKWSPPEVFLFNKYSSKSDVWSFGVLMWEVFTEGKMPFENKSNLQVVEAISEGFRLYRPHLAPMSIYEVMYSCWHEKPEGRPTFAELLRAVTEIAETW

[5] = target: Wee1-like protein kinase (Homo sapiens) (UniProt P30291); experiment: Selectivity interaction (KinomeScan (DiscoverX)) EUB0000666a WEE1; details: at 10 µM
Wee1-like protein kinase (Homo sapiens), sequence (P30291 whole entry, looked up): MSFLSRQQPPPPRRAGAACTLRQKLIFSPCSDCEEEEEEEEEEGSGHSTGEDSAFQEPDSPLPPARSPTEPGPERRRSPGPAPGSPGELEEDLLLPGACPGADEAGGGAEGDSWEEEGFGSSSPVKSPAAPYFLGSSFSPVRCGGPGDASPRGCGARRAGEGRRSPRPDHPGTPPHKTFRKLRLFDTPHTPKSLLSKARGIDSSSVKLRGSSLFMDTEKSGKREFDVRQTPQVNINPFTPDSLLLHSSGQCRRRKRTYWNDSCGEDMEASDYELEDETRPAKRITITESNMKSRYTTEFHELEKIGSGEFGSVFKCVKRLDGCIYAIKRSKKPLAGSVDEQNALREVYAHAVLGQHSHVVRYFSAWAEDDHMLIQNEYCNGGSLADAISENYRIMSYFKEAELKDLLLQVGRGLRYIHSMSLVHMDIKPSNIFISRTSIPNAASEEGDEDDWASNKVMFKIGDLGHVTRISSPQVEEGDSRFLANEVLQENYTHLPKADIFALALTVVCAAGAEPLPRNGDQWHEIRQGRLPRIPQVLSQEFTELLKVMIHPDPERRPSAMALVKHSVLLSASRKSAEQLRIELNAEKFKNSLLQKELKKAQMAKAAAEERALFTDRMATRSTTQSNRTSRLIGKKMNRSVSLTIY

[6] = target: Nuclear receptor subfamily 1 group I member 2 (Homo sapiens, UniProt O75469); experiment: Selectivity interaction (Pregnane X Receptor (PXR, SXR) binding, human recombinant ) EUB0000877a NR1I2
[7] = target: Tyrosine-protein kinase JAK1 (Homo sapiens, UniProt P23458); experiment: Selectivity interaction (KinomeScan (DiscoverX)) EUB0001868a JAK1; details: at 1 µM
[8] = target: Tyrosine-protein kinase ABL1 (Homo sapiens, UniProt P00519); details: at 10 µM
[9] = target: cAMP-dependent protein kinase catalytic subunit alpha (Homo sapiens, UniProt P17612); experiment: Selectivity interaction (Enzyme panel (AstraZeneca, AlphaScreen, functional assay)) EUB0000621a PRKACA
[10] = target: Glycogen synthase kinase-3 beta (Homo sapiens, UniProt P49841); details: at 10 µM
Focal adhesion kinase 1 = Focal adhesion kinase 1 (Homo sapiens, UniProt Q05397); experiment: Selectivity interaction (Kinase panel (Z-LYTE Assay)) EUB0001632a PTK2; details: at 10 µM
Focal adhesion kinase 1, sequence (Q05397 2-1052 limits assumed): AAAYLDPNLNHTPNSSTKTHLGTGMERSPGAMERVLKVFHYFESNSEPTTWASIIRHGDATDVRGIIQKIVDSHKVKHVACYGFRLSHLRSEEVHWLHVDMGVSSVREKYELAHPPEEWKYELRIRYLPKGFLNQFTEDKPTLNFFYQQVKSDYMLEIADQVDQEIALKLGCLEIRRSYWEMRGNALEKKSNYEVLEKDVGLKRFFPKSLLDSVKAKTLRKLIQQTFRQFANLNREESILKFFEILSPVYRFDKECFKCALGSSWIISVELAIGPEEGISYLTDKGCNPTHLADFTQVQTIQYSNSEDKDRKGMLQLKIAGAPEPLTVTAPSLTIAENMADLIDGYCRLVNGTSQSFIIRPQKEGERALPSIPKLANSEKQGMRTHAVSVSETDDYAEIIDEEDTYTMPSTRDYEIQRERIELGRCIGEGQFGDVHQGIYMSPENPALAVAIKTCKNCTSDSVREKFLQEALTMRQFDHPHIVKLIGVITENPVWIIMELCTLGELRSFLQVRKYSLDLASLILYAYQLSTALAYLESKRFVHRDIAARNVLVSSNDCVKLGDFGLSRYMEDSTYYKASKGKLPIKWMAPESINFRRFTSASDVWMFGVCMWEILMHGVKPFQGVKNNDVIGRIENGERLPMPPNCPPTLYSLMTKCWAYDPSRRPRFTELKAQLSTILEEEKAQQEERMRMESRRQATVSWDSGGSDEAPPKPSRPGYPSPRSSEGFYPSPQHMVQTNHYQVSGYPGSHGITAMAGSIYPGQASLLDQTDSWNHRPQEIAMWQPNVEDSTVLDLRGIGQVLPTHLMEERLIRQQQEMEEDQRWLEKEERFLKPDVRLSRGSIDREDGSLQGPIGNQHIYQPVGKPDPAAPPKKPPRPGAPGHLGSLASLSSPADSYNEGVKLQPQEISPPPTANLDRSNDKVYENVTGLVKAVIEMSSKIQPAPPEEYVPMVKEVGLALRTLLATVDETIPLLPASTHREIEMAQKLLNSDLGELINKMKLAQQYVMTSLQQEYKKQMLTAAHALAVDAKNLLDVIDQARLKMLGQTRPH

[11] = target: NT-3 growth factor receptor (Homo sapiens, UniProt Q16288); experiment: Selectivity interaction (Kinase panel (Z-LYTE Assay)) EUB0001632a NTRK3; details: at 10 µM
NT-3 growth factor receptor, sequence (Q16288 32-839 limits assumed): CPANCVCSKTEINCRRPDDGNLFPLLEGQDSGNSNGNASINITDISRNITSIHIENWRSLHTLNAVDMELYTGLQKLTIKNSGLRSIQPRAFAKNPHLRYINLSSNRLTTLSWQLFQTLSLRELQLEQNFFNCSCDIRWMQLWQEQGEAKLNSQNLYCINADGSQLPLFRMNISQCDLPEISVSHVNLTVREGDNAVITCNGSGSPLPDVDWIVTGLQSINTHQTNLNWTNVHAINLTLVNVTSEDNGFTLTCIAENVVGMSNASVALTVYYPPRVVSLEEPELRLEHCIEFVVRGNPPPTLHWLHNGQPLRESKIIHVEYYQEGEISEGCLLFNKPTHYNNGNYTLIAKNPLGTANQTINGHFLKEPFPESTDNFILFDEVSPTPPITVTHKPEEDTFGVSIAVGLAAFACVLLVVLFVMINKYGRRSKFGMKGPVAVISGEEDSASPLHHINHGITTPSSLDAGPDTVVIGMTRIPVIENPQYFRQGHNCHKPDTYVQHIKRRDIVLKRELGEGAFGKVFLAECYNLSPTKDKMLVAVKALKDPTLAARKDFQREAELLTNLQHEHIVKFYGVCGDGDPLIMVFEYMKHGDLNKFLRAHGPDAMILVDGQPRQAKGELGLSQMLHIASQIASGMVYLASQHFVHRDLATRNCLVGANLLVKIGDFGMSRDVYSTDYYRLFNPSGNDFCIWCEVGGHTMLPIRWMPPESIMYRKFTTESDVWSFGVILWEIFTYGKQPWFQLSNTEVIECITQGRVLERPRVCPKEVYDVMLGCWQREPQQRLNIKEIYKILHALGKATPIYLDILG

[12] = target: Casein kinase II subunit alpha' (Homo sapiens) (UniProt P19784); experiment: Selectivity interaction (KinomeScan (DiscoverX)) EUB0000607a CSNK2A2; details: at 10 µM
Casein kinase II subunit alpha' (Homo sapiens), sequence (P19784 whole entry, looked up): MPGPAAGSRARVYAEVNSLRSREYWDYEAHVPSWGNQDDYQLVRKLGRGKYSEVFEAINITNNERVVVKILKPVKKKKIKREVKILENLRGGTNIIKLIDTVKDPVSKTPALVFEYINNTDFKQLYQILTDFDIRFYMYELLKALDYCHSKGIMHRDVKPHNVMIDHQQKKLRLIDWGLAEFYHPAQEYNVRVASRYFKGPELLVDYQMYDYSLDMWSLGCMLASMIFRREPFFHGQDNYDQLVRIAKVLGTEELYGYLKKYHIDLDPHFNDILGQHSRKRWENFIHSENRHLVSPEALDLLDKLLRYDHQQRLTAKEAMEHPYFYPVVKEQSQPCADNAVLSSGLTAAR

[13] = target: Delta-type opioid receptor (Homo sapiens, UniProt P41143); experiment: Selectivity interaction (Panel of non-epigenetic targets (kinases, GPCRs, ion channels, and transporters, Eurofins) ) EUB0000271b OPRD1; details: at 1 µM
[14] = target: Tyrosine-protein kinase Fes/Fps (Homo sapiens) (UniProt P07332); experiment: Selectivity interaction (KinomeScan (DiscoverX)) EUB0000695a FES; details: at 100 nM
[15] = target: Casein kinase II subunit alpha' (Homo sapiens) (UniProt P19784); experiment: Selectivity interaction (KinomeScan (DiscoverX)) EUB0000595a CSNK2A2; details: at 10 µM
[16] = target: Cyclin-dependent kinase 16 (Homo sapiens) (UniProt Q00536); experiment: Selectivity interaction (KinomeScan (DiscoverX)) EUB0000045b CDK16
Cyclin-dependent kinase 16 (Homo sapiens), sequence (Q00536 whole entry): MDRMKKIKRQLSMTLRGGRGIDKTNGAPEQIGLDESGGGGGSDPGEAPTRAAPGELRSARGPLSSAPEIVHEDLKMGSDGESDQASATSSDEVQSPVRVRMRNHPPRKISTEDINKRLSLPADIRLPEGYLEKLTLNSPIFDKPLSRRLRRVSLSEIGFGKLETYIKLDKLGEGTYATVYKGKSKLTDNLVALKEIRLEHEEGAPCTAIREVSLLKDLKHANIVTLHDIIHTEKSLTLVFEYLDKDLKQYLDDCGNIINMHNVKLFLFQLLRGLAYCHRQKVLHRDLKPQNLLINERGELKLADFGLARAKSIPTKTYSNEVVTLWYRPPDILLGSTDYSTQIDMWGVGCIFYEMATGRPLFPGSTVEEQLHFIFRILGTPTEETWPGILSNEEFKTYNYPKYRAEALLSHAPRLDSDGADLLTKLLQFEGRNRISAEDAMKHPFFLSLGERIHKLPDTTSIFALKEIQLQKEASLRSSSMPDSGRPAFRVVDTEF

[17] = target: Non-receptor tyrosine-protein kinase TYK2 (Homo sapiens, UniProt P29597); experiment: Selectivity interaction (Kinase panel (Carna Biosciences)) EUB0001542aTs TYK2; details: at 1 µM
Non-receptor tyrosine-protein kinase TYK2, sequence (P29597 whole entry): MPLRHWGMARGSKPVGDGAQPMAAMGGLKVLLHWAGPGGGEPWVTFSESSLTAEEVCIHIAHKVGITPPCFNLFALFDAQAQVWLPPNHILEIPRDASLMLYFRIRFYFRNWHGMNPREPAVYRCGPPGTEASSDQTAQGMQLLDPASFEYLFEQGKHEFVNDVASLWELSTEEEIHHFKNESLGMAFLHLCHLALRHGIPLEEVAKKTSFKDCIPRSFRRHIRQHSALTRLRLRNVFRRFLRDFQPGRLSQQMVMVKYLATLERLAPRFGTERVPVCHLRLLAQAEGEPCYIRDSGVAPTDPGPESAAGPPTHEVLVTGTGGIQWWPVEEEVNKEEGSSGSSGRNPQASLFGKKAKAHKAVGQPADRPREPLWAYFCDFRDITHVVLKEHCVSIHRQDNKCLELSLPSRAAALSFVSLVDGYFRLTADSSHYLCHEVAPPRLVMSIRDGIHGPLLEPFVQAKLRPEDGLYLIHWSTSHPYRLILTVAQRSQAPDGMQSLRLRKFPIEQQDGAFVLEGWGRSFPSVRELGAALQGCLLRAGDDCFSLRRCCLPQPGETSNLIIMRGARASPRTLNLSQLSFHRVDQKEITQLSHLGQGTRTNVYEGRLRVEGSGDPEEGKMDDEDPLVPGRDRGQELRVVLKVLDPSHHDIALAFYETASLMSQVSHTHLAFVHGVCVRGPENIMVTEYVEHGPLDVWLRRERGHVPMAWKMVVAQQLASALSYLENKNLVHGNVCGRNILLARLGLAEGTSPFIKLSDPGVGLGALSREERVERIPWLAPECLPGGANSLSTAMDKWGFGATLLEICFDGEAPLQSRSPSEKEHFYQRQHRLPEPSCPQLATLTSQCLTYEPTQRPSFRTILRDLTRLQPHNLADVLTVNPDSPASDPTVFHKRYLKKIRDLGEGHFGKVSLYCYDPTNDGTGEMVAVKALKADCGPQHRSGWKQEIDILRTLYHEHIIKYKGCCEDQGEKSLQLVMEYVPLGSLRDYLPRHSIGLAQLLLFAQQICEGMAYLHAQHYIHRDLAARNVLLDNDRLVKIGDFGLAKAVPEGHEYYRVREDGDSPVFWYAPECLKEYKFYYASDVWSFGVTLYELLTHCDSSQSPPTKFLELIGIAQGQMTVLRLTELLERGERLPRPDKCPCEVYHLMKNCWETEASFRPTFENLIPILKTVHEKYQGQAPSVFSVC

[18] = target: Tyrosine-protein kinase Yes (Homo sapiens) (UniProt P07947); experiment: Selectivity interaction (Kinase screening (Nanosyn)) EUB0000604a YES1
[19] = target: T2, Protein arginine N-methyltransferase 9 (Homo sapiens, UniProt Q6P2P2); experiment: Selectivity interaction (Scintillation proximity assays) EUB0000230b PRMT9
T2 sequence (Q6P2P2 whole entry): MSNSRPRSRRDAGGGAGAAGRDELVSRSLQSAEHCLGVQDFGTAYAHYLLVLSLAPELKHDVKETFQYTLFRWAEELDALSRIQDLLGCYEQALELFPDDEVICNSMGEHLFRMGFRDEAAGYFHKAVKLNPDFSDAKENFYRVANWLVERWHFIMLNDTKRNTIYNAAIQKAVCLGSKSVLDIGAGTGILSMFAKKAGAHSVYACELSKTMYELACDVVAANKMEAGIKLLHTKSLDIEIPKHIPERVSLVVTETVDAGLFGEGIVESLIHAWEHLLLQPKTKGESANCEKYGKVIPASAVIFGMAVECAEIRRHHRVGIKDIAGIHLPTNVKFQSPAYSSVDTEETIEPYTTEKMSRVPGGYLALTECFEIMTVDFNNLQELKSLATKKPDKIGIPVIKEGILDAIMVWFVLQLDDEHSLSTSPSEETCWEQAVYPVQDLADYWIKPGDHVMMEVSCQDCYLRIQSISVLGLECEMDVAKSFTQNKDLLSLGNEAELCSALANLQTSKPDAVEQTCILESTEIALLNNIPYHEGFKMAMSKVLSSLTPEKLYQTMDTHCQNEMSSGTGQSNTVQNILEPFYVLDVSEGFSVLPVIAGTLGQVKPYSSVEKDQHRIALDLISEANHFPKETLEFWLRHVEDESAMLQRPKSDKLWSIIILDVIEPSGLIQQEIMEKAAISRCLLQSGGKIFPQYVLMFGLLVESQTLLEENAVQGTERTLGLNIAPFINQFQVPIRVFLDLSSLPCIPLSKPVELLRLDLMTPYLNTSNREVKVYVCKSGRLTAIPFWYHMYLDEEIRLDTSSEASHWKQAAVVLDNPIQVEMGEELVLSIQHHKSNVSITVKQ

[20] = target: RAC-alpha serine/threonine-protein kinase (Homo sapiens, UniProt P31749); experiment: Selectivity interaction (ActivX KiNativ screen (ex vivo kinase selectivity in human PBMCs)) EUB0001619a AKT1; type: cell-based; details: PBMC, at 1 µM
RAC-alpha serine/threonine-protein kinase, sequence (P31749 whole entry): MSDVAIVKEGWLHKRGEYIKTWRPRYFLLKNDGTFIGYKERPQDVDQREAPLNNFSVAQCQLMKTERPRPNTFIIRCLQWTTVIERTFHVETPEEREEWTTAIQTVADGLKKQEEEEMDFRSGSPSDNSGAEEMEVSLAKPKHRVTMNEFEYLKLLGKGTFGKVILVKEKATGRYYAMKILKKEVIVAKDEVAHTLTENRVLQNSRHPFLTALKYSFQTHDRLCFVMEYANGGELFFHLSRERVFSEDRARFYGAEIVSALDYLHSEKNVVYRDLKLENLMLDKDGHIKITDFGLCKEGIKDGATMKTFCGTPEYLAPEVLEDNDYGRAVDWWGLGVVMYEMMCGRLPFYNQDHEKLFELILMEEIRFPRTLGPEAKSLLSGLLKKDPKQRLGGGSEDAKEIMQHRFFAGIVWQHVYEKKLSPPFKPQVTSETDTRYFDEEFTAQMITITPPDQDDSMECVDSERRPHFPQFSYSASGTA

CCN(CC)CCCCNc1ncc2cc(-c3cc(OC)cc(OC)c3)c(NC(=O)NC(C)(C)C)nc2n1
% of control [1]: 100%

Cc1ccc(-c2ccc3c(ccc4sc5c(c43)NC[C@@H](C)NC5=O)n2)cn1
% of inhibition [2]: 10%

CN(C)C(=O)Cn1cc(-c2ccc(-c3cncc4ccccc34)cc2)cn1
% of control [3]: 59%

CN(C)CCOc1ccc(-c2nc(-c3ccncc3)c(-c3ccc4c(c3)CC/C4=N\O)[nH]2)cc1
% of control [4]: 97%

O=C(NOC[C@H](O)CO)c1ccc(F)c(F)c1Nc1ccc(I)cc1F
% of control [5]: 67%

CCC(=O)N1CC[C@H](Nc2ncnc3c2CN(c2cnc(OC)c(C(F)(F)F)c2)CC3)C1 [LENIOLISIB]
IC50 [6]: > 30 µM

Cc1cc(-c2ccnc(Nc3cnn(C)c3)n2)ccc1CNC(=O)N1CC(OC(C)C)C1
% of control [7]: 29%

Cc1cc([C@@H](C)Nc2ccccc2C(=O)O)c2nc(N3CCOCC3)cc(=O)n2c1 [AZD-6482]
% of control [8]: 88% | IC50 [9]: > 999 µM | % of control [10]: 100%

Cn1cc(-n2cnc3c(NCc4nc5cc(Cl)c(Cl)cc5[nH]4)nc(N4CCOCC4)nc32)cn1
% of control (Focal adhesion kinase 1): 5.39% | % of control [11]: 19%

CNC(=O)Nc1ccc(-c2nc(N3CC4CCC(C3)O4)c3cnn(C4CCC5(CC4)OCCO5)c3n2)cc1
% of control [12]: 100%

Cc1cc(C)cc([C@@H]2c3cc(C)ccc3NC(=O)CN2C(=O)c2ccc(Br)s2)c1
% of inhibition [13]: -20%

Cc1cc(F)c(C(=O)Nc2cccc(-c3nncn3C(C)C)n2)cc1-n1cnc(C2CC2)c1
% of control [14]: 100%

COCC(=O)NC/C=C/c1ccc2ncnc(Nc3ccc(Oc4ccc(C)nc4)c(C)c3)c2c1 [CP-724714]
% of control [15]: 100%

C=CC(=O)Nc1cc(-n2c(=O)ccc3cnc4ccc(-c5ccc(NS(C)(=O)=O)cc5)cc4c32)ccc1C
% of control ([16]; at 1 µM): 100% | % of control ([16]; at 10 µM): 100%

Cn1cc(Nc2nccc(N3CC4CCC(C3)N4C(=O)[C@@H]3CC3(F)F)n2)cn1
% of inhibition [17]: 98%

Cc1cnc(Nc2ccc(F)cc2Cl)nc1-c1c[nH]c(C(=O)N[C@H](CO)c2cccc(Cl)c2)c1
% of inhibition [18]: 5%

CNCCN1CCC(c2cc(CN(C)C(=O)c3cccc(Oc4ccccc4)c3)ccn2)CC1
IC50 [19]: > 10 µM

N#Cc1cccc(-c2c[nH]c3ncnc(N4CCOCC4)c23)c1
% of inhibition [20]: -6%
